Legend:
VEGF = VEGF protein in conditioned media by ELISA, U87MG cells; assay type: cell-based, human
Description: The VEGF-A (DVE00) ELISA kit was obtained from R&D Systems (Minneapolis, MN). […] Desferrioxamine (DFO) was purchased from Sigma-Aldrich, and the MEK inhibitor (U0126) was purchased from EMD-Millipore (Billerica, MA). pGL4.74 [hRluc/TK] vector (Promega Madison, WI) was used as an internal control in luciferase assay.

VEGF promoter = VEGF promoter luciferase assay in U87MG cells; assay type: cell-based, human; conditions: DFO 250 μM, 18 hours
Description: FIGS. 31A-31B depict U87MG cells transiently co-transfected with a full-length human VEGF promoter luciferase plasmid and a pGL4.74 [hRluc/TK] plasmid as an internal control. Cells were treated with SEMA3F (640 ng/ml for 30 minutes) prior to the addition of DFO (250 μM) or the culture of cells in a hypoxia chamber (1% 02). After 18 hours, VEGF promoter luciferase activity was analyzed. FIG. 31C depicts a graph of U87MG cells transiently cotransfected with our VEGF promoter luciferase and pGL4.74 [hRluc/TK] plasmids and with either a pcDNA3.1 empty vector or our constitutively active Akt (2DAkt). The cells were treated with SEMA3F for 30 minutes prior to the addition of DFO. After 18 hours, VEGF promoter luciferase activity was analyzed. FIG. 31D depicts a graph of parental U87MG cells treated with SEMA3F, rapamycin (10 nM), Torin 1 (10 nM) alone or in combination as indicated for 30 minutes prior to the addition of DFO, and culture supernatants were collected after 18 hours; VEGF protein levels were analyzed by ELISA. In each panel data are representative of 3 independent experiments. Bar graphs represent the mean±SD of n=3 experiments performed in triplicate, *, p<0.01 vs. control.
SEMA3F inhibits hypoxia-induced production of VEGF via the mTOR pathway. The local expression and regulation of VEGF is key to many physiological and pathological processes (40, 41). These findings indicate that SEMA3F can target the transcriptional activation of VEGF via its ability to target mTOR kinase activity (36, 42). To test the effect of SEMA3F on the regulation of VEGF expression, U87MG cells were transfected with a full-length 2.6 kb VEGF promoter-luciferase construct and exposed to the hypoxia mimetic agent desferrioxamine (DFO) or hypoxia (1% 02). […] To test the relative effect of SEMA3F on mTORC1/C2, U87MG cells transiently co-transfected with the 2DAkt construct and the full length VEGF promoter reporter construct, and the cells cultured in the absence or presence of SEMA3F. […] Finally, the effect of SEMA3F on the secretion of VEGF into conditioned media (by ELISA) was determined in the absence or presence of DFO.
Transfection and Luciferase assay: U87MG cells were transiently transfected with plasmid constructs (pcDNA3.1, WT mTOR, 2DAkt, VEGF luciferase reporter plasmid or pGL4.74 [hRluc/TK]) as indicated using Lipofectamine 2000 reagent (Life Technologies) according to the manufacturer's instructions. After 18 hours, cells were treated as outlined in each experimental design. VEGF promoter activity was analyzed using a Dual-Luciferase Reporter Assay System (Promega), and luciferase activity was normalized by Renilla luciferase as an internal control.

[1] = tested on: glioblastoma cells and EC; conditions: reference 12; cited from earlier work
U87MG cells = test: Western blot of PI-3K/Akt-mTOR and MAPK signaling in U87MG cells; assay type: cell-based, human; conditions: U87MG cells
Description: U87MG which express NRP-2 were used for this assay.
To determine the effect of SEMA3F on intracellular signaling responses, levels of phosphokinases in the NRP2-expressing human glioblastoma cell line U87MG were profiled.
Western blotting: Proteins within each sample were separated by SDS-PAGE and transferred to nitrocellulose membranes. The membranes were blocked with 4% skimmed milk in TBS-T (0.1% Tween 20 in tris-buffered saline [TBS]) for 30 minutes, followed by incubation with the primary antibody. After washing with TBS-T, membranes were incubated with the appropriate horseradish peroxidase-conjugated secondary antibody, and immunoreactivity was detected by using ECL detection reagents.

[2] = rapamycin alone 10 nM for 90 minutes, vs untreated

## CC(=O)N(O)CCCCCNC(=O)CCC(=O)N(O)CCCCCNC(=O)CCC(=O)N(O)CCCCCN [DFO, desferrioxamine, reference compound]
VEGF; DFO, compared to untreated cells
  increase of VEGF production: 160%
VEGF promoter
  induction of VEGF promoter activity: 16 fold

## Cc1ccc(NC(=O)c2ccc(CN3CCN(C)CC3)cc2)cc1Nc1nccc(-c2cccnc2)n1 [Gleevec, imatinib]
[1]
  SEMA3-mediated loss of stress fiber formation and motility: abrogates SEMA3-mediated loss of stress fiber formation and motility

## CCC(=O)N1CCN(c2ccc(-n3c(=O)ccc4cnc5ccc(-c6cnc7ccccc7c6)cc5c43)cc2C(F)(F)F)CC1 [Torin 1]
VEGF; DFO, compared to SEMA3F or Torin 1 alone
  VEGF levels, combination of SEMA3F and Torin 1: slightly (but significantly p<0.05) inhibited VEGF levels
VEGF; SEMA3F, rapamycin 10 nM or Torin 1 10 nM, 30 minutes prior to DFO, supernatants after 18 hours
  DFO-induced VEGF protein secretion: significantly reduced

## N#CC(=C(/N)Sc1ccccc1N)/C(C#N)=C(\N)Sc1ccccc1N [U0126, reference compound]
U87MG cells; U0126 10 μM 30 minutes prior to SEMA3F 640 ng/ml
  effect of MEK inhibitor on SEMA3F regulation of pAkt: did not modulate

## CO[C@H]1C[C@@H]2CC[C@@H](C)[C@@](O)(O2)C(=O)C(=O)N2CCCC[C@H]2C(=O)O[C@H]([C@H](C)C[C@@H]2CC[C@@H](O)[C@H](OC)C2)CC(=O)[C@H](C)/C=C(\C)[C@@H](O)[C@@H](OC)C(=O)[C@H](C)C[C@H](C)/C=C/C=C/C=C/1C [rapamycin, reference compound]
U87MG cells; [2]
  induction in the level of pAkt (S473): 2.0 fold
  induction in the level of pAkt (T308): 1.9 fold
